Experiment [1] deals with A375—NRASQ^61K cells (cell line A375.11). As to the kind of experiment: CTGlo (CellTiter-Glo 2.0) Cell Viability Assay. In kind it is cell-based. How it is done:
Compounds of the present invention were tested for their effect on the viability of A375—NRASQ^61K cells by quantification of ATP using the CellTiter-Glo® 2.0 Cell Viability Assay (Catalog No. G9243, Promega, Madison, WI, USA). This assay produces a luminescent signal in the presence of ATP, which is indicative of metabolically active cells, making the luminescence readout proportional to the number of viable cells. A375—NRASQ^61K cells, also referred to here as cell line A375.11, (harboring BRAF homozygous V600E mutation and NRAS homozygous Q61K mutation) were purchased from ATCC (Catalog No. CRL-1619IG-2, Manassas, VA, USA).
Cells were also plated to a 384-well plate with no compound treatment, to which CellTiter-Glo® reagent was added and luminescence was read right after plating to act as a baseline signal at time of plating (To).
DMSO treated cells with no CellTiter-Glo® reagent added were used as the background or positive control (P). Viability was determined by subtracting out the average background signal (P) and normalized to the average untreated signal (N) set at 100%.

Experiment [2] deals with GSPT1 (Homo sapiens, UniProt P15170+Q96SW2). In words: GSPT1 HiBiT Degradation Assay in 293T.114 cells. The conditions noted are these: for HIBIT-Degradation 293T.114 GSPT1 24 hours IP nM / DC50: 293T.114 cells, 24 hours; for HIBIT-Degradation 293T.114 GSPT1 24 hours IP nM: inflection point of the dose-response curve; for DC50: read-out: HIBIT-Degradation 293T.114 GSPT1 24 hours DC50 nM; for Emax: read-out: HIBIT-Degradation 293T.114 GSPT1 24 hours Emax. (With HiBiT, luminescence reflects the tagged protein that the partner subunit can reach.)
Description: Upon cell lysis and addition of the complementing LgBiT polypeptide and its substrate, the HiBiT polypeptide on GSPT1 allows reconstitution of an enzyme that activates its substrate to produce a luminescent signal that is directly proportional to the amount of HiBiT-tagged GSPT1. […] Cell culture flasks and 384-well microplates were acquired from VWR (Radnor, PA, USA).
Cellular GSPT1 protein level was determined based on quantification of luminescent signal using the Nano-Glo® HiBiT Lytic Assay kit (Promega). Following the 24 hr treatment time, Nano-Glo® HiBiT Lytic Assay reagents were added to the cells per the manufacturer's instructions by adding 30 µl of reagent per well, and the luminescence signal was acquired on the PHERAstar plate reader (BMG Labtech, Ortenberg, Germany). Cells treated with DMS0 only (no test compound treatment) were used as the negative control (N). Media only (no cells added) withNano-Glo reagent additionwasused as the background orpositive control (P). The percent response of compound treated samples were calculated by subtracting out the 5 background signal (P) and normalizing to the DMS0 control (N) as follows. 0% Response=100 x (Treated Signal - Average (P))/(Average (N) - Average (P)).
Data were analyzed with a 4-parameter logistic fit to generate sigmoidal dose-response curves. DC50 values were computed as the concentrations where the fitted curves cross the 5000 response level.

Where [3] appears, read: 96 h, IP, read-out: CTGlo A375.11 96 hours IP.
[4] abbreviates: 96 hours, lowest % viability achieved.
[5] abbreviates: half-maximal inhibition of cell growth, table title: A375.11 96 hours, read-out: CTGlo A375.11 96 hours GI50.
Where [6] appears, read: 96 hours, IP, read-out: CTGlo A375.11 96 hours IP.

Where two headings read alike, the source gives them in different places.

Chain of GSPT1 (Q96SW2 whole entry): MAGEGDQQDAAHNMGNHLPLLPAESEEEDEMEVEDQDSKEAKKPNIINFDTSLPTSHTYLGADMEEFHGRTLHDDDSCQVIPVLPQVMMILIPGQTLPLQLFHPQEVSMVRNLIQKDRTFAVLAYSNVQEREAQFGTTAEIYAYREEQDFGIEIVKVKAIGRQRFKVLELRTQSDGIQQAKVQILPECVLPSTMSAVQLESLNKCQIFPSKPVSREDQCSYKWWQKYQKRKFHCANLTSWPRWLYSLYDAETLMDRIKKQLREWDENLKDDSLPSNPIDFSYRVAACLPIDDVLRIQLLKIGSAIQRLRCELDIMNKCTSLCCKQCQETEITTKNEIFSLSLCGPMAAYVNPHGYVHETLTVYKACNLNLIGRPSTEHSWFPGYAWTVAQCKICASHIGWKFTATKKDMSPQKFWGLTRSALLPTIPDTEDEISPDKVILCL
Chain of GSPT1 (Q16531 2-1140, further chain): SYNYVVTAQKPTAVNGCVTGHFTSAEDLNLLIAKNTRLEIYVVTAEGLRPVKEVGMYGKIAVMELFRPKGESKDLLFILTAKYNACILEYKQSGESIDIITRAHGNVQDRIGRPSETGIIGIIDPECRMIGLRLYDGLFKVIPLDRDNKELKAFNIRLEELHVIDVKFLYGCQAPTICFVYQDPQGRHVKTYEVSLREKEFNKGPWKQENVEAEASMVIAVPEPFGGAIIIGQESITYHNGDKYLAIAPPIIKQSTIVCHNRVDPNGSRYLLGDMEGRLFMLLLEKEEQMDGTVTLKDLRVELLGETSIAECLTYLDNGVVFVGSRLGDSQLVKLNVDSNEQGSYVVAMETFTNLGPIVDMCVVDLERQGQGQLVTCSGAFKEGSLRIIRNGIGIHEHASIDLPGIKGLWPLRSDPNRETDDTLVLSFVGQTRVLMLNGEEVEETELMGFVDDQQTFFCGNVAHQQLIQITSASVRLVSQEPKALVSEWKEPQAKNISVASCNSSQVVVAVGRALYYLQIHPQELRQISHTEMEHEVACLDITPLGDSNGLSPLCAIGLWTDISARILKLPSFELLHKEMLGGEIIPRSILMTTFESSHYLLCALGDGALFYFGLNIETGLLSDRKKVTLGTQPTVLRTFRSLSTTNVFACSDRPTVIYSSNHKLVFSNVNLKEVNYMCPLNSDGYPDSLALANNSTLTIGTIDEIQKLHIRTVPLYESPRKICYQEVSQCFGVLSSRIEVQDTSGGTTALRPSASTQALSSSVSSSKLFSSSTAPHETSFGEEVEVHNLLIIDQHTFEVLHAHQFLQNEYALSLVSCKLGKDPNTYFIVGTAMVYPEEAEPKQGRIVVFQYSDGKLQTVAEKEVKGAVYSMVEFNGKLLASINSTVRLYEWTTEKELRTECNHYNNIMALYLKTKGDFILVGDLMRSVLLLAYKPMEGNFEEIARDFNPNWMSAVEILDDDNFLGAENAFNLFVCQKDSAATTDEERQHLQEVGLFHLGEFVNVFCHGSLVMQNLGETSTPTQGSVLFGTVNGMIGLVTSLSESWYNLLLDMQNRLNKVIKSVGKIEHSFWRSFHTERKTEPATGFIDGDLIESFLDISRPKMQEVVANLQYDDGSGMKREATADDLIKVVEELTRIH
Chain of GSPT1 (P15170 whole entry): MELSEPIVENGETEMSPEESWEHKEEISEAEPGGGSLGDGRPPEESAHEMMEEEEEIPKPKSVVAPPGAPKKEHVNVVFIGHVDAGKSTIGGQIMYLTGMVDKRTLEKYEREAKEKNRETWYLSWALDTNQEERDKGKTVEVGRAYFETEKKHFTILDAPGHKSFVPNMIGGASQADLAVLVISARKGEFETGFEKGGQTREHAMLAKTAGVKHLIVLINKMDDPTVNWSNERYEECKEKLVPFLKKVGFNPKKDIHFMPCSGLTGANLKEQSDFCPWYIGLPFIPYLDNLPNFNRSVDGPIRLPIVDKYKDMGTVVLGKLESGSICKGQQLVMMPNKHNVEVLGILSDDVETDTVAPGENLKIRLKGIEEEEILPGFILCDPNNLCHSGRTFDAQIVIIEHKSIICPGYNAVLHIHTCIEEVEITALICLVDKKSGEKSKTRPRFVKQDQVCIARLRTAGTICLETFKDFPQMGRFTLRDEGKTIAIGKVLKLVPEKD

For `CCN(C)S(=O)(=O)Nc1ccc(F)c(Oc2ccc3ncn([C@H]4COC5(CCN(C(=O)CN6CCC(c7ccc(OC8CCC(=O)NC8=O)cc7S(=O)(=O)F)CC6)CC5)C4)c(=O)c3c2)c1C#N` (stereo partly drawn) [drawing 1181], the GI50 in experiment [1] (setting [3]) and in experiment [1] (setting [5]) was more than 10 µM throughout. Besides, in experiment [1] (setting [4]), the Emax lay in the range of 60 to 95%.
As for `CCN(C)S(=O)(=O)Nc1ccc(F)c(Oc2ccc3ncn([C@H]4COC5(CCN(C(=O)CN6CCC(c7ccc(NC8CCC(=O)NC8=O)cc7OS(C)(=O)=O)CC6)CC5)C4)c(=O)c3c2)c1C#N` (stereo partly drawn) [drawing 1176], the GI50 in experiment [1] (setting [6]) was 1 to 10 µM; in experiment [1] (setting [5]), more than 10 µM. Besides, the Emax in experiment [1] (setting [4]) was less than 60%.
As for `CCN(C)S(=O)(=O)Nc1ccc(F)c(Oc2ccc3ncn([C@H]4COC5(CCN(C(=O)CN6CCN(c7ccc(N8CCC(=O)NC8=O)cc7OS(=O)(=O)F)CC6)CC5)C4)c(=O)c3c2)c1C#N` [drawing 1172], the GI50 in experiment [1] (setting [3]) and in experiment [1] (setting [5]) was more than 10 µM each time. This compound had an Emax in experiment [1] (setting [4]) of 60 to 95%.
In the case of `CCN(C)S(=O)(=O)Nc1ccc(F)c(Oc2ccc3ncn([C@H]4COC5(CCN(C(=O)CN6CCN(c7ccc(C8CCC(=O)NC8=O)cc7OS(=O)(=O)F)CC6)CC5)C4)c(=O)c3c2)c1C#N` (stereo partly drawn) [drawing 1170], the GI50 in experiment [1] (setting [3]) was less than 1 µM; in experiment [1] (setting [5]), more than 10 µM. In addition, the Emax in experiment [1] (setting [4]) was 60 to 95%.
For `CCN(C)S(=O)(=O)Nc1ccc(F)c(Oc2ccc3ncn([C@H]4COC5(CCN(C(=O)CN6CCC(c7ccc(NC8CCC(=O)NC8=O)cc7S(=O)(=O)F)CC6)CC5)C4)c(=O)c3c2)c1C#N` (stereo partly drawn) [drawing 1178] the same measures were more than 10 µM, more than 10 µM and 60 to 95%.
In the case of `CCN(C)S(=O)(=O)Nc1ccc(F)c(Oc2ccc3ncn([C@H]4COC5(CCN(C(=O)CN6CCC(c7ccc(N8CCC(=O)NC8=O)cc7OS(C)(=O)=O)CC6)CC5)C4)c(=O)c3c2)c1C#N` [drawing 1174], the GI50 in experiment [1] (setting [6]) and in experiment [1] (setting [5]) was 1 to 10 µM throughout. Moreover, the Emax in experiment [1] (setting [4]) was less than 60%.
The DC50 is the concentration giving 50% degradation. On to `CCN(C)S(=O)(=O)Nc1ccc(F)c(Oc2ccc3ncn([C@@H]4COC5(CCN(C(=O)CN6CCC(c7ccc(C8CCC(=O)NC8=O)cc7OS(=O)(=O)F)CC6)CC5)C4)c(=O)c3c2)c1C#N` (stereo partly drawn) [drawing 1231], for which, in experiment [2], the “HIBIT-Degradation 293T.114 GSPT1 24 hours IP nM” value is “** (<10 μM and >1 μM is **)”; the half-maximal degradation concentration (DC50) was more than 10000 nM; the Emax is less than 60%.
With `CCN(C)S(=O)(=O)Nc1ccc(F)c(Oc2ccc3ncn([C@H]4COC5(CCN(C(=O)CN6CCN(c7ccc(C8CCC(=O)NC8=O)cc7OS(=O)(=O)F)CC6)CC5)C4)c(=O)c3c2)c1C#N` (stereo partly drawn) [drawing 1232], in experiment [2], the “HIBIT-Degradation 293T.114 GSPT1 24 hours IP nM” value is “** (<10 μM and >1 μM is **)”; the half-maximal degradation concentration (DC50) was more than 10000 nM; the Emax was 60 to 95%.
Turning to `CCN(C)S(=O)(=O)Nc1ccc(F)c(Oc2ccc3ncn([C@@H]4COC5(CCN(C(=O)CN6CCC(c7ccc(N8CCC(=O)NC8=O)cc7OS(=O)(=O)F)CC6)CC5)C4)c(=O)c3c2)c1C#N` [drawing 1171], the GI50 in experiment [1] (setting [3]) and in experiment [1] (setting [5]) was more than 10 µM each time. The Emax in experiment [1] (setting [4]) was 60 to 95%.
For `CCN(C)S(=O)(=O)Nc1ccc(F)c(Oc2ccc3ncn([C@H]4COC5(CCN(C(=O)CN6CCN(c7ccc(C8CCC(=O)NC8=O)cc7OS(=O)(=O)F)CC6)CC5)C4)c(=O)c3c2)c1C#N` (stereo partly drawn) [drawing 1183], in experiment [1] (96 hours, IP), the “CTGlo A375.11 96 hours IP nM” value is “** (<10 μM and >1 μM is **)”. Further, in experiment [1] (setting [4]), the “CTGlo A375.11 96 hours Emax” value was “** (<95% and >60% is **)”. The GI50 in experiment [1] (setting [5]) was more than 10 µM.

For the origin of these results see US20260274856A1, “COVALENT CEREBLON LIGANDS” (C4 THERAPEUTICS, INC., priority 2023, published 2026).
